By pIC50 is commonly meant the negative decadic logarithm of the IC50, by convention in mol/L.

Common to all, as to format: cell-based
For assay [1], the target named is T1, human EGFR exon 20 insertion ASV (V769_D770insASV) (Homo sapiens, UniProt P00533, INS769ASV).
T1 construct: expressed in transfected cells; host or cells: Ba/F3 (murine pro-B) cells transduced with lentivirus from pLVX-IRES puro
In words: Ba/F3-EGFR-Exon20-ASV cell anti-proliferative assay (CellTiter 96 MTS, 72 h). As to conditions: Ba/F3-EGFR-Exon20-ASV cells. The procedure, abridged: (§1)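 Ba/F3 cells made IL-3-independent by lentiviral EGFR exon 20 NPG or ASV insertion were exposed 72 h at 37 °C to 4-fold dilutions of compound (top 10,000 nM). Viability read by MTS tetrazolium conversion, absorbance 490 nm after 2 h.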

For assay [2], the target named is T2, human EGFR exon 20 insertion NPG (H773_V774insNPG) (Homo sapiens, UniProt P00533, INS772GNP).
T2 construct: expressed in transfected cells; host or cells: Ba/F3 (murine pro-B) cells transduced with lentivirus from pLVX-IRES puro
T2 sequence (P00533 with tags, fused parts or gaps INS772GNP): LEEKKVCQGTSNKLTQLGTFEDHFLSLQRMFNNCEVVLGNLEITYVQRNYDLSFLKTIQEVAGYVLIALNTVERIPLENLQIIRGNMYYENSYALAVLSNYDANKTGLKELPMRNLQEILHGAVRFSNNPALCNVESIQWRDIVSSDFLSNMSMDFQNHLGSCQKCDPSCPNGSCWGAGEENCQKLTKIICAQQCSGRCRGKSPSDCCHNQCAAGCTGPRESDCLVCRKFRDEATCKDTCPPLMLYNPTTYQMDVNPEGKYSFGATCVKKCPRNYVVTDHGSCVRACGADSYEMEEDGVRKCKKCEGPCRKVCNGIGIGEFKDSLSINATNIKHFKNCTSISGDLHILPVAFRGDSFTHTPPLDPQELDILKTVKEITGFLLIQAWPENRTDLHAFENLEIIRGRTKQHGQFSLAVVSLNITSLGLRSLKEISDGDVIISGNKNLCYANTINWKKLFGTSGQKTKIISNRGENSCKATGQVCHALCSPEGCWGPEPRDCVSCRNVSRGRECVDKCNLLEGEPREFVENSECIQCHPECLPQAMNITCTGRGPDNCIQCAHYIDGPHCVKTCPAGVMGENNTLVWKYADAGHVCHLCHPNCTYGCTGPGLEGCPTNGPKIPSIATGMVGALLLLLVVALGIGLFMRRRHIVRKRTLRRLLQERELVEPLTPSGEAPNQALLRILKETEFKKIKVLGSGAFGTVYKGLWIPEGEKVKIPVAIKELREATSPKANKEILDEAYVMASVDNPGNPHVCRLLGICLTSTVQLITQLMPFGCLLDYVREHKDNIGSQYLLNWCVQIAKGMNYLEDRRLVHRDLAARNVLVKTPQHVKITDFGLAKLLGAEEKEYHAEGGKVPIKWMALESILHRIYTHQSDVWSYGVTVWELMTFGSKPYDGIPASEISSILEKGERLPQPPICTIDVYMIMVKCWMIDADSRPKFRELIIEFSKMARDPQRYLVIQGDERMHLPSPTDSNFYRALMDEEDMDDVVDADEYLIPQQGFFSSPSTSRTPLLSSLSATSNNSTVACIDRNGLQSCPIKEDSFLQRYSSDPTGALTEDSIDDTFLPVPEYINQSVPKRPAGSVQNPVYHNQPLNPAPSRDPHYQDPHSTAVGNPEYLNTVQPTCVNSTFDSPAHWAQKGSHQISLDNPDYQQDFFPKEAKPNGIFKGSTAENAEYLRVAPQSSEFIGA
In words: Ba/F3-EGFR-Exon20-NPG cell anti-proliferative assay (CellTiter 96 MTS, 72 h). Particulars: Ba/F3-EGFR-Exon20-NPG cells. The procedure, abridged: as §1

In assay [3] the target is T3, human EGFR E746-A750 deletion and T790M Mutation (Homo sapiens, UniProt P00533, DEL746-750/T790M).
T3 construct: expressed in transfected cells; host or cells: Ba/F3 (murine pro-B) cells transduced with lentivirus from pLVX-IRES puro
T3 sequence (P00533 with tags, fused parts or gaps DEL746-750/T790M): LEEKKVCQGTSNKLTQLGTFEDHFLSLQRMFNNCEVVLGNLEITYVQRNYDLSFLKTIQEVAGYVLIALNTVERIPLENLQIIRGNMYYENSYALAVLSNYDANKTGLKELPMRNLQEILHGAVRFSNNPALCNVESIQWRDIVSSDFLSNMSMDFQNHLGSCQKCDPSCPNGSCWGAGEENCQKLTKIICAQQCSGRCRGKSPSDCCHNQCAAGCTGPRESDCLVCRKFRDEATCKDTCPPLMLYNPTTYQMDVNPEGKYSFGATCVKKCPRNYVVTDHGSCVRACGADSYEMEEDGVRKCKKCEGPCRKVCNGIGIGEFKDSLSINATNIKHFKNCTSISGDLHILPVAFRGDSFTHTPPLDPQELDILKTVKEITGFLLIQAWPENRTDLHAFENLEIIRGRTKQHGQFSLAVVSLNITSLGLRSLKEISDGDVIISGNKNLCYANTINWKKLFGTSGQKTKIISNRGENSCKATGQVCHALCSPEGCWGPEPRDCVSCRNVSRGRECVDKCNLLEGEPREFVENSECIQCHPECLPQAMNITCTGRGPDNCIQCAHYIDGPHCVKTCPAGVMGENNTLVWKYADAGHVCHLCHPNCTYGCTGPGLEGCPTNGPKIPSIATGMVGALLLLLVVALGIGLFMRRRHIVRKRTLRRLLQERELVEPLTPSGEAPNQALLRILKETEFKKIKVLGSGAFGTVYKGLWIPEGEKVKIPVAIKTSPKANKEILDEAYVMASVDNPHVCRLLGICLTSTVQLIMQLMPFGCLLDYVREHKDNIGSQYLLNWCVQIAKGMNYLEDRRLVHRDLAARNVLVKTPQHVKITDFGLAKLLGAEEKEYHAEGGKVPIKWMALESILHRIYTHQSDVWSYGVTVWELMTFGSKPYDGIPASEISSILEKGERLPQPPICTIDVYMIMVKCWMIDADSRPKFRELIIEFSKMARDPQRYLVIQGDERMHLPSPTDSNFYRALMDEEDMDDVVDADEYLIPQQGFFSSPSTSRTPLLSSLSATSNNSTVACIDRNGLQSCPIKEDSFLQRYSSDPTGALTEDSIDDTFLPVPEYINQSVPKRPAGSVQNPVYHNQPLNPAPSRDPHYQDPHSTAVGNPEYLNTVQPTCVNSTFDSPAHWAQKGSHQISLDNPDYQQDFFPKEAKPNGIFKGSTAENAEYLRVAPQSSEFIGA
Description: Ba/F3-EGFR-Del/T790M cell anti-proliferative assay (CellTiter 96 MTS, 72 h). As to conditions: Ba/F3-EGFR-Del/T790M cells. The procedure, abridged:
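Ba/F3 cells made IL-3-independent by lentiviral human EGFR E746-A750 del/T790M, puromycin-selected. Cells treated 72 h at 37 °C with compound, 4-fold dilutions from 10,000 nM top concentration. Viability read by MTS tetrazolium-to-formazan conversion, absorbance at 490 nm after 2 h with reagent.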

In assay [4] the target is T4, human EGFR L858R and T790M double mutation (Homo sapiens, UniProt P00533, L858R/T790M).
T4 construct: expressed in transfected cells; host or cells: Ba/F3 (murine pro-B) cells transduced with lentivirus from pLVX-IRES puro
T4 sequence (P00533 25-1210 T790M/L858R): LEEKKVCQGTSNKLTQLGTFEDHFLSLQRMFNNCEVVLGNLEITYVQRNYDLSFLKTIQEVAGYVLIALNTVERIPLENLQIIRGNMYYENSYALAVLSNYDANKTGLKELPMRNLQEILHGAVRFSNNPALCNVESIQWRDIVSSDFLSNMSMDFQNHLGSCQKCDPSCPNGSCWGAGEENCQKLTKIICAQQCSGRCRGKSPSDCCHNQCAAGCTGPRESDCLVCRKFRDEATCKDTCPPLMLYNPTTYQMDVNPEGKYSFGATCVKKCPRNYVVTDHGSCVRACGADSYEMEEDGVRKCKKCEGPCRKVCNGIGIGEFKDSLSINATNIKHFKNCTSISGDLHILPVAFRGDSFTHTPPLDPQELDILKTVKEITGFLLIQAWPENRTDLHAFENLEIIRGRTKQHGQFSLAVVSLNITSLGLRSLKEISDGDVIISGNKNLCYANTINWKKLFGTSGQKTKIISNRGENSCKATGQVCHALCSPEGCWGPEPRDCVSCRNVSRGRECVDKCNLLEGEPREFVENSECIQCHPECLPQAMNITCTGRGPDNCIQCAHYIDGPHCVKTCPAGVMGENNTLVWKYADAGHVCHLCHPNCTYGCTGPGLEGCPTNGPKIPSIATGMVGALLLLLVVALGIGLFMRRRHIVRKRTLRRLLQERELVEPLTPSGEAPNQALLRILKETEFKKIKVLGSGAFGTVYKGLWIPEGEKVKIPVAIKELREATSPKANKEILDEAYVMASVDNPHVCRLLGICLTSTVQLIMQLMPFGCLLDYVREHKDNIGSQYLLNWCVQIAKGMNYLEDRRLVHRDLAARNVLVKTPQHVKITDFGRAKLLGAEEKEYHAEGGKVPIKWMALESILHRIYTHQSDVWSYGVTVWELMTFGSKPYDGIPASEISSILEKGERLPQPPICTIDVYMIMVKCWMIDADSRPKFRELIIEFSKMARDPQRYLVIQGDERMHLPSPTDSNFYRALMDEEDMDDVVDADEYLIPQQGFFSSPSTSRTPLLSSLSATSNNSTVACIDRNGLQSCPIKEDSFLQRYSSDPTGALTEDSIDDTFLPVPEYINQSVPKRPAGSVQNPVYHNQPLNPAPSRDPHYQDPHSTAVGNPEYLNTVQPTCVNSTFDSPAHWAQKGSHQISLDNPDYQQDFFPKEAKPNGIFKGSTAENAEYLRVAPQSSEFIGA
Description: Ba/F3-EGFR L858R/T790M cell anti-proliferative assay (CellTiter 96 MTS, 72 h). As to conditions: Ba/F3-EGFR L858R/T790M cells. As for the experimental part: An expression vector, pLVX-IRES puro (Clontech) coding for human EGFR L858R and T790M double mutation, was transfected into HEK293 cells by the Trans-Lentiviral ORF Packaging System (Thermo Scientific), to produce virus encoding EGFR L858R and T790M double mutations. Ba/F3 (DSMZ) cells maintained in RPMI 1640 medium supplemented with 10% fetal bovine serum, 200 μM L-glutamine/l 200 μg/mL penicillin/200 μg/mL streptomycin (Life Technology) and 10 ng/mL IL-3 (R&D system), were infected by EGFR L858R and T790M double mutation virus and subsequently selected by puromycin (Life Technology) selection and IL-3 depletion. […] The anti-proliferative activity of compounds was determined as follows: BaF3-EGFR L858R/T790M cells seeded in 96 well plates (2500 cells/well) were treated with test compound (dissolved in DMSO) at a series of concentrations (4-fold dilution, top concentration: 10,000 nM). The plates were incubated for 72 h in a 37° C. incubator with 5% CO2, and the number of viable cells in each well were measured indirectly by CellTiter 96® Aqueous One Solution Cell Proliferation Assay (Promega; this assay is a colorimetric method for determining the number of viable cells through measurement of their metabolic activity by detection of enzymatic conversion of tetrazolium salts into blue formazan derivatives). Reagent (20 μL) was added into each well, and the plates were returned to the incubator for 2 h. The absorbance in each well was then measured at 490 nm using an Envision plate reader (Perkin Elmer).

The target in assay [5] is T5, Her2 exon 20 YVMA insertion (A775_G776ins YVMA) (Homo sapiens, UniProt P04626, INS775YVMA).
T5 construct: expressed in transfected cells; host or cells: Ba/F3 (murine pro-B) cells transduced with lentivirus from pLVX-IRES puro
T5 sequence (P04626 with tags, fused parts or gaps INS775YVMA): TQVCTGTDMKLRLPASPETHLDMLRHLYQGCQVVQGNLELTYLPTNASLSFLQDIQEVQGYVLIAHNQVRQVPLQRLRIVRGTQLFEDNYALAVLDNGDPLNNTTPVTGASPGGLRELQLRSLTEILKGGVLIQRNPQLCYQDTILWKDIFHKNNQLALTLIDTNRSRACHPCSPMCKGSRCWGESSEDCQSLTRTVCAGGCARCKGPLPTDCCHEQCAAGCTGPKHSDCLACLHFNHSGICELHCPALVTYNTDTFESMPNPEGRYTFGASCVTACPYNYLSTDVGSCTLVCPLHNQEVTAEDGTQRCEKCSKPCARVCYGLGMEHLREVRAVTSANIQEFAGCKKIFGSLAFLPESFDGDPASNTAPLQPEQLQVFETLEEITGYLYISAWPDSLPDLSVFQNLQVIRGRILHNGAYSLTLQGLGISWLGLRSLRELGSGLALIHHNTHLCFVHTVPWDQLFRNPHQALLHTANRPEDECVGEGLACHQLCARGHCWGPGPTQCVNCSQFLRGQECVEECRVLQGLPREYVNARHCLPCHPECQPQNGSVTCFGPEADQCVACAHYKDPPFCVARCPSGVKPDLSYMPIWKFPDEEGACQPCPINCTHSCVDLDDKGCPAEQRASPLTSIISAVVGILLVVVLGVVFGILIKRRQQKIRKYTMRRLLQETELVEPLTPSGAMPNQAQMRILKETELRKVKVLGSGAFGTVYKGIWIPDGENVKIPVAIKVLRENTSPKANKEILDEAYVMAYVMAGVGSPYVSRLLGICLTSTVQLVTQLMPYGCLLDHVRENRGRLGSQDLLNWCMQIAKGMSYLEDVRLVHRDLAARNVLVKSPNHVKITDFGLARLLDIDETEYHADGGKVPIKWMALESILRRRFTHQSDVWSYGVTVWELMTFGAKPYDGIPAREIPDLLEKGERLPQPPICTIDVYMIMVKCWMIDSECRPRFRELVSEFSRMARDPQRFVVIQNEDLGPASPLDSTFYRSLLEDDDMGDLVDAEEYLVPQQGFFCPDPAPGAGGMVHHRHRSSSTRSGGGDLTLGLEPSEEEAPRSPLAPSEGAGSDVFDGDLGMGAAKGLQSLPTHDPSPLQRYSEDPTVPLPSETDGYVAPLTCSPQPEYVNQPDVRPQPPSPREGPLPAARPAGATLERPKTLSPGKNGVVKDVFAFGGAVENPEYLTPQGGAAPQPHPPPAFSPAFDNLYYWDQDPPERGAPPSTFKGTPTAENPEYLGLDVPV
In words: Ba/F3-Her2 Exon20 YVMA cell anti-proliferative assay (CellTiter 96 MTS, 72 h). Particulars: Ba/F3-Her2 Exon20 YVMA cells. The procedure, abridged:
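IL-3-independent Ba/F3 cells transduced with the YVMA insertion were treated with compound in 4-fold dilutions from 10,000 nM top. After 72 h at 37° C, viable cells were quantified by MTS tetrazolium conversion, with absorbance read at 490 nm after 2 h.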

pIC50: −log10 of the molar value.

Take `C=CC(=O)Nc1cc(Nc2ncc(CCC(O)CC)c(-c3cn4c5c(cccc35)CCC4)n2)c(OC)cc1N(C)CCN(C)C` (stereo not shown) [Example 38, N-(5-((4-(5,6-dihydro-4H-pyrrolo[3,2,1-ij]quinolin-1-yl)-5-(3-hydroxypentyl)pyrimidin-2-yl)amino)-2-((2-(dimethylamino)ethyl)(methyl)amino)-4-methoxyphenyl)acrylamide]: the pIC50 in assay [1], in assay [2] and in assay [5] was greater than 7.00 in each case. In addition, in assay [3], the “EGFR exon 19 deletion and exon 20 T790M mutation IC50” value is “A (IC50 value for the indicated mutant below about 100 nM)”. The “EGFR exon 21 L858R and exon 20 T790M mutation IC50” value in assay [4] is given as “A (IC50 value for the indicated mutant below about 100 nM)”.
Regarding `C=CC(=O)Nc1cc(Nc2ncc(Cl)c(-c3cn4c5c(cccc35)OCC4)n2)c(OC)cc1O[C@@H](COCC)CN(C)C` [Example 80, (R)-N-(5-((5-chloro-4-(2,3-dihydro-[1,4]oxazino[2,3,4-hi]indol-6-yl)pyrimidin-2-yl)amino)-2-((1-(dimethylamino)-3-ethoxypropan-2-yl)oxy)-4-methoxyphenyl)acrylamide], the pIC50 in assay [2] is greater than 7.00; in assay [5] it was 6.30 to 7.00. The “EGFR exon 19 deletion and exon 20 T790M mutation IC50” value in assay [3] was “A (IC50 value for the indicated mutant below about 100 nM)”. Also, the “EGFR exon 21 L858R and exon 20 T790M mutation IC50” value in assay [4] is “A (IC50 value for the indicated mutant below about 100 nM)”.
Consider `C=CC(=O)Nc1cc(Nc2nccc(-c3cn4c5c(cccc35)CCC4)n2)c(OC)cc1N(C)CCN(C)C` [Example 10, N-(5-((4-(5,6-dihydro-4H-pyrrolo[3,2,1-ij]quinolin-1-yl)pyrimidin-2-yl)amino)-2-((2-(dimethylamino)ethyl)(methyl)amino)-4-methoxyphenyl)acrylamide], for which the pIC50 is 6.30 to 7.00 in assay [1], greater than 7.00 in assay [2] and 6.30 to 7.00 in assay [5]. Further, in assay [3], the “EGFR exon 19 deletion and exon 20 T790M mutation IC50” value is reported as “A (IC50 value for the indicated mutant below about 100 nM)”. In assay [4], the “EGFR exon 21 L858R and exon 20 T790M mutation IC50” value is reported as “A (IC50 value for the indicated mutant below about 100 nM)”.
Regarding `C=CC(=O)Nc1cc(Nc2ncc(C(N)=O)c(-c3cn4c5c(cccc35)CCC4)n2)c(OC)cc1N(C)CCN(C)C` [Example 46, 2-((5-acrylamido-4-((2-(dimethylamino)ethyl)(methyl)amino)-2-methoxyphenyl)amino)-4-(5,6-dihydro-4H-pyrrolo[3,2,1-ij]quinolin-1-yl)pyrimidin-5-carboxamide], the pIC50 was greater than 7.00 in assay [1], greater than 7.00 in assay [2] and 6.30 to 7.00 in assay [5]. The “EGFR exon 19 deletion and exon 20 T790M mutation IC50” value in assay [3] is recorded as “A (IC50 value for the indicated mutant below about 100 nM)”. The “EGFR exon 21 L858R and exon 20 T790M mutation IC50” value in assay [4] is “A (IC50 value for the indicated mutant below about 100 nM)”.
Consider `C=CC(=O)Nc1cc(Nc2ncc(Cl)c(-c3cn4c5c(cccc35)CCC4)n2)c(OC)cc1N(C)CCN(C)C` [Example 11, N-(5-((5-chloro-4-(5,6-dihydro-4H-pyrrolo[3,2,1-ij]quinolin-1-yl)pyrimidin-2-yl)amino)-2-((2-(dimethylamino)ethyl)(methyl)amino)-4-methoxyphenyl)acrylamide], for which the pIC50 in assay [1] is greater than 7.00; in assay [2], greater than 7.00; in assay [5] it was 6.30 to 7.00. In addition, in assay [3], the “EGFR exon 19 deletion and exon 20 T790M mutation IC50” value is given as “A (IC50 value for the indicated mutant below about 100 nM)”. Besides, the “EGFR exon 21 L858R and exon 20 T790M mutation IC50” value in assay [4] was “A (IC50 value for the indicated mutant below about 100 nM)”.
Take `C=CC(=O)Nc1cc(Nc2ncc(Cl)c(-c3cn4c5c(cccc35)OCC4)n2)c(OC)cc1O[C@H](COCC)CN(C)C` [Example 81, (S)-N-(5-((5-chloro-4-(2,3-dihydro-[1,4]oxazino[2,3,4-hi]indol-6-yl)pyrimidin-2-yl)amino)-2-((1-(dimethylamino)-3-ethoxypropan-2-yl)oxy)-4-methoxyphenyl)acrylamide]: the values for the pIC50 in assay [2] and in assay [5] were greater than 7.00 and 6.30 to 7.00, respectively. Further, the “EGFR exon 19 deletion and exon 20 T790M mutation IC50” value in assay [3] was “A (IC50 value for the indicated mutant below about 100 nM)”. The “EGFR exon 21 L858R and exon 20 T790M mutation IC50” value in assay [4] is recorded as “A (IC50 value for the indicated mutant below about 100 nM)”.
On to `C=CC(=O)Nc1cc(Nc2ncc(Cl)c(-c3cn4c5c(cccc35)CCC4)n2)c(OC)cc1O[C@H](COCC)CN(C)C` [Example 23, (S)-N-(5-((5-chloro-4-(5,6-dihydro-4H-pyrrolo[3,2,1-ij]quinolin-1-yl)pyrimidin-2-yl)amino)-2-((1-(dimethylamino)-3-ethoxypropan-2-yl)oxy)-4-methoxyphenyl)acrylamide], for which the negative-log IC50 (pIC50) in assay [2] and in assay [5] was 6.30 to 7.00 each time. Further, the “EGFR exon 19 deletion and exon 20 T790M mutation IC50” value in assay [3] is “A (IC50 value for the indicated mutant below about 100 nM)”. Besides, the “EGFR exon 21 L858R and exon 20 T790M mutation IC50” value in assay [4] is “A (IC50 value for the indicated mutant below about 100 nM)”.
As for `C=CC(=O)Nc1cc(Nc2ncc(Cl)c(-c3cn4c5c(cccc35)CCC4)n2)c(Cl)cc1N(C)CCN(C)C` [Example 12, N-(4-chloro-5-((5-chloro-4-(5,6-dihydro-4H-pyrrolo[3,2,1-ij]quinolin-1-yl)pyrimidin-2-yl)amino)-2-((2-(dimethylamino)ethyl)(methyl)amino)phenyl)acrylamide], the pIC50 in assay [2] was greater than 7.00; in assay [5] it was 6.30 to 7.00. For the same compound, the “EGFR exon 19 deletion and exon 20 T790M mutation IC50” value in assay [3] is reported as “A (IC50 value for the indicated mutant below about 100 nM)”. In addition, the “EGFR exon 21 L858R and exon 20 T790M mutation IC50” value in assay [4] is recorded as “A (IC50 value for the indicated mutant below about 100 nM)”.
Consider `C=CC(=O)Nc1cc(Nc2ncc(-c3cnn(C)c3)c(-c3cn4c5c(cccc35)CCC4)n2)c(OC)cc1N(C)CCN(C)C` [Example 49, N-(5-((4-(5,6-dihydro-4H-pyrrolo[3,2,1-ij]quinolin-1-yl)-5-(1-methyl-1H-pyrazol-4-yl)pyrimidin-2-yl)amino)-2-((2-(dimethylamino)ethyl)(methyl)amino)-4-methoxyphenyl)acrylamide], for which the pIC50 in assay [1], in assay [2] and in assay [5] was greater than 7.00 each time. The “EGFR exon 19 deletion and exon 20 T790M mutation IC50” value in assay [3] was “A (IC50 value for the indicated mutant below about 100 nM)”.
On to `C=CC(=O)Nc1cc(Nc2nccc(-c3c(-c4ncnn4C)n4c5c(cccc35)CCC4)n2)c(OC)cc1N(C)CCN(C)C` [Example 110], for which the pIC50 in assay [1] was 6.30 to 7.00; in assay [2], greater than 7.00; in assay [5] it was less than 6.00. In assay [3], the “EGFR exon 19 deletion and exon 20 T790M mutation IC50” value is “A (IC50 value for the indicated mutant below about 100 nM)”.
On to `C=CC(=O)Nc1cc(Nc2ncc(-c3ncccn3)c(-c3cn4c5c(cccc35)CCC4)n2)c(OC)cc1N(C)CCN(C)C` [Example 108], for which the negative logarithm of the IC50 (pIC50) is 6.30 to 7.00 in assay [1], greater than 7.00 in assay [2] and less than 6.00 in assay [5]. Also, the “EGFR exon 19 deletion and exon 20 T790M mutation IC50” value in assay [3] is “B (IC50 value for the indicated mutant between about 100 to about 500 nM)”.
As to `C=CC(=O)Nc1cc(Nc2ncc(Cl)c(-c3cn4c5c(cccc35)OCC4)n2)c(OC)cc1N(C)CC1CCCN1C` (stereo not shown) [Example 8, N-(5-((5-chloro-4-(2,3-dihydro-[1,4]oxazino[2,3,4-hi]indol-6-yl)pyrimidin-2-yl)amino)-4-methoxy-2-(methyl((1-methylpyrrolidin-2-yl)methyl)amino)phenyl)acrylamide], the pIC50 was greater than 7.00 in assay [1], greater than 7.00 in assay [2] and 6.30 to 7.00 in assay [5]. For the same compound, the “EGFR exon 19 deletion and exon 20 T790M mutation IC50” value in assay [3] is “A (IC50 value for the indicated mutant below about 100 nM)”.
